In ChEMBL document CHEMBL2074279, “Pharmacokinetics of 5 (and 6)-carboxy-2',7'-dichlorofluorescein and its diacetate promoiety in the liver” (J Pharmacol Exp Ther, 2003):

Assays:
[1] = target: ATP-binding cassette sub-family C member 2 (Rattus norvegicus, UniProt Q63120); test: TP_TRANSPORTER: inhibition of CDF uptake (CDF: 10 uM, Probenecid: 260 uM) in Mrp2-expressing Sf9 cells; assay type: functional; details: sf9, 260 µM
[2] = target: ATP-binding cassette sub-family C member 3 (Rattus norvegicus, UniProt O88563); test: TP_TRANSPORTER: inhibition of CDF uptake (CDF: 10 uM, Probenecid: 260 uM) in Mrp3-expressing Sf9 cells; assay type: functional; details: sf9, 260 µM
Chain of ATP-binding cassette sub-family C member 3 (O88563 whole entry): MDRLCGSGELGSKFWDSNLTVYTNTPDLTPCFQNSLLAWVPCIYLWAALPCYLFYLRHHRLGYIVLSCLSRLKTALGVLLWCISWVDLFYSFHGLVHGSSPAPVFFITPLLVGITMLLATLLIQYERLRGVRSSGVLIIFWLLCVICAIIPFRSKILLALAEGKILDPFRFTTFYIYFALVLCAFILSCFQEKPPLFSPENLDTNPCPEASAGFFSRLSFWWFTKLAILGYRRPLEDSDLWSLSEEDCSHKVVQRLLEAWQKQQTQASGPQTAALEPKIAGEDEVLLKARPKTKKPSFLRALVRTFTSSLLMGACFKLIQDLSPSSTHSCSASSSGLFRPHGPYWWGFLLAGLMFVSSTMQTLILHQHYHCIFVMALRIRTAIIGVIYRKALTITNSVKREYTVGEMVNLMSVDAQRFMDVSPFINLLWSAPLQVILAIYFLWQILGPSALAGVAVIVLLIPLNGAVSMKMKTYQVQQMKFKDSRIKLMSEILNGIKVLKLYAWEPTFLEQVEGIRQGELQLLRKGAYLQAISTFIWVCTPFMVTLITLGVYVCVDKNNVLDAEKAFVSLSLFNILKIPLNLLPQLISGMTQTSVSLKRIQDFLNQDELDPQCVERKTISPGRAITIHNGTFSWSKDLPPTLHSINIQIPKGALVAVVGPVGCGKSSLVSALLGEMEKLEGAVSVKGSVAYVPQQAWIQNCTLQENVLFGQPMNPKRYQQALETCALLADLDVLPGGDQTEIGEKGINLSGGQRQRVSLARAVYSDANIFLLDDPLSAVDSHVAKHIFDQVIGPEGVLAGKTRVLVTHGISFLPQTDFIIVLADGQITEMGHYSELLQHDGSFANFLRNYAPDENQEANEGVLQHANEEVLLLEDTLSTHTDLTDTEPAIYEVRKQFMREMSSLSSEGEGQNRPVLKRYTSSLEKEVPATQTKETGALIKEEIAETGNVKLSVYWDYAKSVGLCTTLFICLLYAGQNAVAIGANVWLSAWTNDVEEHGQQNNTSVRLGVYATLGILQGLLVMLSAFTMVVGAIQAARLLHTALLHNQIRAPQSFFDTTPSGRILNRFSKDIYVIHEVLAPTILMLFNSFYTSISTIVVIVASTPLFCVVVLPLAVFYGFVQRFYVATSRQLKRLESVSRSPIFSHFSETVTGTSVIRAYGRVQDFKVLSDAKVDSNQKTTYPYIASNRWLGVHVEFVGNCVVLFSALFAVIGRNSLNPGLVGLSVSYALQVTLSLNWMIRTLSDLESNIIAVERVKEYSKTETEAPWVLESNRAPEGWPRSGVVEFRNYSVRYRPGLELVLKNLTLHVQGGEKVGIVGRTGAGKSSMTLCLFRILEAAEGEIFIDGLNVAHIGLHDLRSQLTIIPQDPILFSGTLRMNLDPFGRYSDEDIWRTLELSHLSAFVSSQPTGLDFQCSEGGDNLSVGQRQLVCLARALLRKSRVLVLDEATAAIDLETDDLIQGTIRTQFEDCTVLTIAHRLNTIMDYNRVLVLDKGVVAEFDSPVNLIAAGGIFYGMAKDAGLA

Chain of ATP-binding cassette sub-family C member 2 (Q63120 whole entry): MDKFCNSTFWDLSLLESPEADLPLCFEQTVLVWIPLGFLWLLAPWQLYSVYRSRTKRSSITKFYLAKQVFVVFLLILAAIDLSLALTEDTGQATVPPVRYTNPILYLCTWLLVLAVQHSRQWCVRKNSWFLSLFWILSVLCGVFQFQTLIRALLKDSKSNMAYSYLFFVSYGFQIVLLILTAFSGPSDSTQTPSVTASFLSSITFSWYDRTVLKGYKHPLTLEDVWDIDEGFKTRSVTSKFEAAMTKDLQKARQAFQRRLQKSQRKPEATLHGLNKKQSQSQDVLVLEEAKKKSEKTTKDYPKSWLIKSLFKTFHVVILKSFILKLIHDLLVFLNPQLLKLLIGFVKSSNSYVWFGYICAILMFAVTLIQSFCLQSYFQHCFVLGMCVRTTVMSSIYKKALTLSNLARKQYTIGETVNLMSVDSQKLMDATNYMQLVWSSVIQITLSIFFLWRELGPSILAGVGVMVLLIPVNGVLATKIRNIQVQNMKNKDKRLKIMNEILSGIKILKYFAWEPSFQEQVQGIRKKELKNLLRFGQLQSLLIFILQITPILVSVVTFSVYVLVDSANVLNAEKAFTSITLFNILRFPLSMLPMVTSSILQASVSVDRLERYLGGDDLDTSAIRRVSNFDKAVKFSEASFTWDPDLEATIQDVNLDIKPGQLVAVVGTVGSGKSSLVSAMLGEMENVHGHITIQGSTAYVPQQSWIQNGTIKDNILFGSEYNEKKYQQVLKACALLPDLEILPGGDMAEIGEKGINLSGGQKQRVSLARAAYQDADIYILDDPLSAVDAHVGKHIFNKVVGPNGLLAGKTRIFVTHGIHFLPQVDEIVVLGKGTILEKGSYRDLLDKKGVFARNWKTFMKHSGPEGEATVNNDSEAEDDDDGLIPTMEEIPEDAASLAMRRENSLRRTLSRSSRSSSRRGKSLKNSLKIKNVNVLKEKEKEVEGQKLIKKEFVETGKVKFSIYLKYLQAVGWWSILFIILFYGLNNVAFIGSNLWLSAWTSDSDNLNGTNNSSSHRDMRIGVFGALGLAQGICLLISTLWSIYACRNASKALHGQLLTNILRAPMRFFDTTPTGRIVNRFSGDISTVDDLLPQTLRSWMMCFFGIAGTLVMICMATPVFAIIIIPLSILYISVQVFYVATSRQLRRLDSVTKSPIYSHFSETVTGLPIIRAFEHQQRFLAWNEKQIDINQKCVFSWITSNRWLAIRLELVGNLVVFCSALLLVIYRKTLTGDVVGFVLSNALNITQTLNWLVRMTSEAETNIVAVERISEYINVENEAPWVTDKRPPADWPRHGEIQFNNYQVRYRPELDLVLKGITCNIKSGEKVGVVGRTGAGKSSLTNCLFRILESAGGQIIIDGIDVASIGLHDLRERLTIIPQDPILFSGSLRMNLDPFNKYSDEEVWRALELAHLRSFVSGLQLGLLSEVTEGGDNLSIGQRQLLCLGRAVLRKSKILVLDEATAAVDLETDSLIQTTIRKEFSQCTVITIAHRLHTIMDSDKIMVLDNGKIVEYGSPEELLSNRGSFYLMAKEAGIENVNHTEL

CCCN(CCC)S(=O)(=O)c1ccc(C(=O)O)cc1 [PROBENECID]
Activity [1]: inhibitor [(at a rough estimate) 40 % of control] | Activity [2]: inhibitor [(at a rough estimate) 35 % of control]
